Experimental data: patent publication US10722446B2, “Aqueous oral care compositions” (Colgate-Palmolive Company, priority 2011, dated 2020)

Test: Rheological properties (stress controlled AR2000ex rheometer, flow curve and strain sweep)
Format: physicochemical
Description: The three commercial mouthwashes are a simple fluoride-rinse type mouthwash (comparative formulation 1), a polymer based high fluoride mouthwash (comparative formulation 2), and a mouthwash having a conventional polymer system different from that described in this case (mouthwash 3). The rheological properties of the formulations are quantified using a stress controlled AR2000ex rheometer (TA Instruments) and a cuette type geometry. A flow curve is generated and fit to a power law model to quantify the flow rate index, n. A strain sweep is conducted to quantify the elastic modulus, G′ and the loss modulus, G″.

[1] = flow curve fit to a power law model
[2] = strain sweep, cuette type geometry

O [Newtonian Fluid Example, Water]
k [1]: 1.1 cps | n (flow rate index) [1]: 1.0 | G′/G″ (ratio of elastic to viscous components): 0.09 | G′ (elastic modulus) [2]: 0.02 dyn/cm2 | G″ (loss modulus) [2]: 0.23 dyn/cm2
